Data from patent US20230124862A1, “BISMUTH THIOL COMPOUNDS AND COMPOSITIONS AND METHODS OF TREATING MICROBIAL CO-INFECTIONS” (Microbion Corporation, priority 2020, published 2023).
Values after ≈ are worked out from the molar mass of the structure shown. Where two headings read alike, the source gives them in different places. Marks after values point to notes of the source that are not given here.

Key:
[1] = test system: M. avium; test: MIC testing of CF isolates; assay type: cell-based; conditions: Mycobacterium avium
[2] = test system: B. cenocepacia; test: MIC testing of CF isolates; assay type: cell-based, Burkholderia cenocepacia; conditions: strain AU197
[3] = test system: Enterococcus spp.; test: Broth microdilution MIC (Example 11); assay type: cell-based, E. faecalis, E. faecium; conditions: Enterococcus, VRE, enterococci incl. VRE; read-out: MIC values
[4] = test system: Anaerobes (Bacteroides fragilis, Clostridium difficile); test: Agar dilution MIC (Example 11); assay type: cell-based
Procedure: The susceptibility of anaerobic bacteria was determined by agar dilution using Brucella Agar (BD/BBL; Lot No. 5237692) supplemented with 5 μg/mL hemin (Sigma, St. Louis, Mo.; Lot No. 108K1088), 1 μg/mL Vitamin K1 and 5% (v/v) laked sheep blood (Cleveland Scientific, Bath, Ohio; Lot No. 322799).
Agar Dilution MIC Testing (Anaerobic Bacteria and Gonococci): MIC values for anaerobic bacteria were determined using a reference agar dilution method as described by CLSI (6). Organisms were grown at 35° C. in the Bactron II Anaerobic Chamber (Shel Lab, Cornelius, Oreg.) for approximately 48 hr prior to the assay. Drug dilutions and drug-supplemented agar plates were prepared manually per CLSI (6). The plates were allowed to stand at room temperature for 1 hr to allow the agar surface to dry and pre-reduced for approximately 1 hr in the anaerobe chamber prior to inoculation. Each isolate was suspended to the equivalent of a 0.5 McFarland standard in Brucella broth using a turbidity meter (Dade Behring MicroScan, West Sacramento, Calif.). Each bacterial cell suspension was then diluted 1:10 in Brucella broth and transferred to wells in a stainless steel replicator block which was used to inoculate the test plates. The prongs on the replicator deliver approximately 1-2 μl of inoculum to an agar surface. The resulting inoculum spots contained approximately 1×10^5 CFU/spot. After the inoculum dried, the inoculated drug-supplemented agar plates and no drug growth control plates were incubated at 35° C. for 42-48 hr in the anaerobe chamber. The MIC was read per CLSI guidelines (6).

[5] = test system: Aspergillus spp.; test: Antifungal broth microdilution (Example 13); assay type: cell-based, A. niger, A. terreus, A. fumigatus, A. flavus; conditions: for MEC at 48 hr: complete inhibition (MIC0) not observed
[6] = test system: P. aeruginosa; test: Checkerboard FIC/FICI assay; assay type: cell-based, Pseudomonas aeruginosa; conditions: during FIC testing
[7] = test system: Acinetobacter baumannii; test: Broth microdilution MIC (Example 12); assay type: cell-based
[8] = in vivo; parameters: species or system rat; conditions: for half-life / concentration at 24 hours / Kp: in vivo
Excerpt: . Without being bound by any particular theory, it is believed BisEDT's low solubility provides slow dissolution and long exposure on lung surface fluids with limited systemic exposure via diffusion through lung epithelium. The lung appears to act as a depot for slow systemic exposure with about 10× lower systemic levels than seen in the lung. The terminal phase of the IV data appears to show slow elimination after initial tissue distribution (FIG. 36).
. The NOAEL was established through clinical observation during and after treatment, gross necropsy, lung lavage analysis, clinical chemistry, and hematology results. […].

[9] = in vivo; conditions: rat, rats, lung-deposited dose, read-out: acute no observed adverse effect level (NOAEL)
Procedure: Based on rat tox and PK data to date, an acute no observed adverse effect level (NOAEL) in rats is approximately 100 μg/kg lung-deposited dose. The NOAEL was established through clinical observation during and after treatment, gross necropsy, lung lavage analysis, clinical chemistry, and hematology results. […] Furthermore, lung surface fluid concentrations are approximately 30-fold higher than the corresponding total lung tissue concentrations for BisEDT which appears to persist primarily on the lumen.

[10] = test system: MucilAir fully differentiated human airway epithelium
[11] = test system: MucilAir fully differentiated human airway epithelium; remark: listed apart in the source
[12] = humans
[13] = rat, 24 hours after single inhalation dose
[14] = rat, 4 days (96 hrs) after single dose
[15] = solid, 0.033 and 0.33 μg/cm^2, all time points

CC(S)C(C)S.[Bi] (stereo not drawn) [BisBDT, bismuth-2,3-butanedithiol]
MIC ([1]; strain AMT G193-13): > 16 µg/mL
MIC ([1]; strain MAC101): 1 µg/mL
MIC [2]: 4 µg/mL
MIC [3]: 0.25 to 1 µg/mL
MIC ([4]; Bacteroides fragilis, ATCC25285, B. fragilis MMX 123 (ATCC 25285), QC, read-out: MIC): 1 µg/mL
MIC ([4]; Bacteroides fragilis, agar dilution, read-out: MIC values): 1 to 4 µg/mL
MIC ([4]; C. difficile MMX 5680 (NCTC 13336), ribotype 027, CC^1 MET^R, read-out: MIC): 2 µg/mL
MIC ([4]; C. difficile MMX 8272, ribotype 255, CC^1, read-out: MIC): 2 µg/mL
MIC ([4]; C. difficile MMX 8279, ribotype 005, CC^R, read-out: MIC): 2 µg/mL
MIC ([4]; C. difficile MMX 8281, ribotype 010, CC^R, read-out: MIC): 2 µg/mL
MIC ([5]; 24 h, A. flavus ATCC 22546, complete inhibition, 24 hr, read-out: MIC0 24 hr): 1 µg/mL
MIC ([5]; 24 h, A. flavus ATCC 204304, complete inhibition, 24 hr, read-out: MIC0 24 hr): 4 µg/mL
MIC ([5]; 24 h, A. flavus MMX 7935, complete inhibition, 24 hr, read-out: MIC0 24 hr): 8 µg/mL
MIC ([5]; 24 h, A. fumigatus ATCC 204305, complete inhibition, 24 hr, read-out: MIC0 24 hr): 8 µg/mL
MIC ([5]; 24 h, A. fumigatus ATCC MYA-3626, complete inhibition, 24 hr, read-out: MIC0 24 hr): 2 µg/mL
MIC ([5]; 24 h, A. fumigatus MMX 5934, complete inhibition, 24 hr, read-out: MIC0 24 hr): 2 µg/mL
MIC ([5]; 24 h, A. fumigatus MMX 5939, complete inhibition, 24 hr, read-out: MIC0 24 hr): 2 µg/mL
MIC ([5]; 24 h, A. terreus MMX 8229, complete inhibition, 24 hr, read-out: MIC0 24 hr): 0.25 µg/mL
MIC ([5]; 48 h, A. flavus ATCC 22546, complete inhibition, 48 hr, read-out: MIC0 48 hr): 2 µg/mL
MIC ([5]; 48 h, A. flavus MMX 7935, complete inhibition, 48 hr, read-out: MIC0 48 hr): 8 µg/mL
MIC ([5]; 48 h, A. fumigatus ATCC MYA-3626, complete inhibition, 48 hr, read-out: MIC0 48 hr): 4 µg/mL
MIC ([5]; 48 h, A. fumigatus MMX 5939, 48 hr, cell marked footnote b, read-out: MIC0 48 hr): 4 µg/mL
MIC ([5]; 48 h, A. terreus MMX 8229, complete inhibition, 48 hr, read-out: MIC0 48 hr): 1 µg/mL
MEC at 48 hr ([5]; A. flavus ATCC 204304, 48 hr): 4/4^a μg/mL
MIC 48 hr ([5]; A. flavus ATCC 204304, 48 hr, cells marked footnote c (not given; Table 109 gives the 48 hr results as MEC)): 4^c
MEC at 48 hr ([5]; A. fumigatus ATCC 204305, 48 hr): 4 µg/mL
MIC 24 hr ([5]; A. fumigatus ATCC MYA-3626, 24 hr): 2 µg/mL
MIC 48 hr ([5]; A. fumigatus ATCC MYA-3626, 48 hr): 4 µg/mL
MEC at 48 hr ([5]; A. fumigatus MMX 5934, 48 hr): 4 µg/mL
MIC ([5]; A. niger ATCC 29508, complete inhibition, […], read-out: MIC0 48 hr): 2 µg/mL

C[C@@H](O)[C@H]1C(=O)N2C(C(=O)O)=C(S[C@@H]3CN[C@H](C(=O)N(C)C)C3)[C@H](C)[C@H]12 [MEM]
MIC ([6]; isolate 103 (ATCC 25922), each agent tested alone for QC, one replicate): 1 µg/mL
MIC ([6]; isolate 6322): 16 µg/mL
MIC ([6]; isolate 6977): 8 µg/mL
MIC ([6]; isolate 7745): 16 µg/mL
MIC ([6]; isolate 8798): 32 µg/mL
MIC ([7]; A. baumannii CDC 273, ESBL/OXA): >8 µg/mL
MIC ([7]; A. baumannii CDC 274, ESBL/OXA): >8 µg/mL
MIC ([7]; A. baumannii CDC 275, ESBL/OXA): >8 µg/mL
MIC ([7]; A. baumannii CDC 277, ESBL/OXA): >8 µg/mL
MIC ([7]; A. baumannii CDC 284, ESBL/OXA): >8 µg/mL
MIC ([7]; A. baumannii CDC 307, OXA): 8 µg/mL (≈ 20.9 µM)
MIC ([7]; A. baumannii CDC 308, ESBL/OXA): 8 µg/mL (≈ 20.9 µM)
MIC ([7]; A. baumannii CDC 311, OXA): >8 µg/mL
MIC ([7]; A. baumannii CDC 312, OXA): 4 µg/mL (≈ 10.4 µM)
MIC ([7]; A. baumannii CDC 313, ESBL/OXA): >8 µg/mL
MIC ([7]; A. baumannii NCTC 13304, OXA): >8 µg/mL

C1C[S][Bi]([S]CC[S][Bi]2[S]CC[S]2)[S]1 [BisEDT, Bismuth-1,2-ethanedithiol]
half-life ([8]; 100 μg/kg, rat, after IV dosing, read-out: half-life of lung levels (converted)): ~24 h
half-life ([8]; inhaled or intranasal, 100 μg/kg, rat, after inhalation dosing, read-out: half-life in lung tissue (converted)): ~96 h
concentration at 24 hours ([8]; average rat, correlated from lung tissue level, read-out: concentration in lung epithelial lining fluid): 150 to 175 µg/mL
half-life ([8]; rat, longer-term single-dose and repeat-dose studies, read-out: half-life in lung tissue (converted)): 96 to 168 h
lung surface fluid concentrations higher than total lung tissue concentrations ([8]; rat): approximately 30 fold
tolerability ([8]; rat, 100 μg/kg inhalation and IV and 250 μg/kg oral): tolerated
equivalent concentration in lung fluid [8, 13]: 123 µg/mL
lung tissue concentration [8, 13]: 4,093 ng/g
equivalent concentration in lung fluid [8, 14]: 78 µg/mL
lung tissue concentration [8, 14]: 2,600 ng/g
lung levels after IV dosing vs inhalation group ([8]; rat, IV): < 5%
Kp ([8]; rat, rat, repeat dose TK, read-out: lung tissue exposure (AUC) greater than blood exposure): 26
Kp ([8]; rat, rat, read-out: lung fluid exposure (AUC) greater than systemic exposure): > 700
concentration at 24 hours ([8]; rat, rats, doses near the NOAEL, 24 hours after dosing, read-out: lung tissue level (total wet lung tissue)): ~5000 ng/g
NOAEL [9]: ~0.1 mg/kg
LDH release ([10]; BisEDT in solution 0.001-30 μM, 1, 8, 24, 48 h): not altered
LDH release (cytotoxicity) ([10]; solid, 1 μg/cm^2, 8, 24 and 48 h): time- and dose-dependent cytotoxicity
LDH release ([10]; solid, 1 μg/cm^2, 1 hour): No significant effect
LDH release [10, 15]: No significant effect
TEER ([11]; BisEDT in solution 0.001-30 μM, all time points): didn't show significant effect
TEER ([11]; solid, 1 μg/cm^2, 8, 24 and 48H): Loss of tissue integrity
TEER ([11]; solid, 1 μg/cm^2, 1 hour): no significant effect
TEER [11, 15]: No significant effect
TEER ([11]; solid, all tested doses, 1 hour exposure): no significant effect
well-tolerated topical concentration ([12]; 6 hours): up to 2500 μg/cm^2
tolerated topical concentration ([12]; over 21 days continuous exposure, normal and abraded skin): up to 75 μg/cm^2
